According to patent US20240173329A1, “BELVARAFENIB FOR USE IN TREATMENT OF BRAIN CANCERS” (Genentech, Inc., priority 2021, published 2024):
Entries after “also recorded” stand apart in the source; their conditions may differ. Like-named read-outs stand apart in the source and are kept apart here.

Experiments:
[1] = cited from earlier work; for B/P (nonclinical), percentage of brain exposure relative to plasma: mice, literature
[2] = test system: P-gp/BCRP; details: literature, cited from earlier work
[3] = test system: patients who harbored a BRAF, NRAS, or KRAS mutation; details: cited from earlier work
[4] = healthy subjects; cited from earlier work
[5] = concentration-independent; cited from earlier work
[6] = test system: human tumor xenograft models; details: highest doses tested; cited from earlier work
[7] = molecular target: T1, BCRP (ABCG2) (Homo sapiens, UniProt Q9UNQ0); assay: Vesicular transport inhibition assay; type: in vitro ADME; details: BCRP-mediated E3S accumulation
T1 construct: expressed by SOLVO Biotechnology in mammalian (K and M) cells by chemical selection; purchased SOLVO Biotechnology; host or cells: mammalian (K and M) cells, overexpression by chemical selection
T1 sequence (Q9UNQ0 1-655): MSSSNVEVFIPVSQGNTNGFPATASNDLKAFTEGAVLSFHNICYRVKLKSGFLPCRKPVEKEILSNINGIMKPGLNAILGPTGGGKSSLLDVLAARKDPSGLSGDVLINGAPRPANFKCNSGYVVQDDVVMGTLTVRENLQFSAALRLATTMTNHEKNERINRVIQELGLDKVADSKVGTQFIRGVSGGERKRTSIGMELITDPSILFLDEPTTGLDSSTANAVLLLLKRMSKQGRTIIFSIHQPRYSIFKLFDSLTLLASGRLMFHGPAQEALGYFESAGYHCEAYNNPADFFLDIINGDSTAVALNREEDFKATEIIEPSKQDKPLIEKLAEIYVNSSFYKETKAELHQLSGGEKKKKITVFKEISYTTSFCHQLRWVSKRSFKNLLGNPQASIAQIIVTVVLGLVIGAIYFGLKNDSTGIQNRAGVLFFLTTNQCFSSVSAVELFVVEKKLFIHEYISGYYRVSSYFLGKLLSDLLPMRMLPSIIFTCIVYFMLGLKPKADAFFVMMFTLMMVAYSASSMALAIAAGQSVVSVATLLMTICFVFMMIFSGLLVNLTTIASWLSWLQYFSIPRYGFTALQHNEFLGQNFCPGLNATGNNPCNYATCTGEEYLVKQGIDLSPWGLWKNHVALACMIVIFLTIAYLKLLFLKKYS
Protocol: (§1) Stock solutions of belvarafenib 2HCl (10 mM, 1.33 mM, 1 mM and 0.1 mM) were prepared in DMSO. Serial dilutions (7-step, 3-fold) were prepared in DMSO, and used as the test solutions in the inhibition assays (100-fold dilution). The dilution factor in substrate experiments was 100-fold.
(§2) Instruments used for detection include a Thermo Scientific Dionex UltiMate 3000 series UHPLC (Thermo Scientific, San Jose, CA) with a Thermo Scientific TSQ Quantum Access Max triple quadrupole MS; a Perkin Elmer MicroBeta2liquid scintillation counter (Perkin Elmer, Waltham MA) and a BMG Labtech FluoStar Omega multifunctional microplate reader (BMG Labtech, Offenburg, Germany).
(§3) Vesicular transport assays were performed with inside-out membrane vesicles prepared from cells overexpressing human ABC transporters. The transporter has been expressed by SOLVO Biotechnology in mammalian (K and M) cells by chemical selection.
(§4) Parameters of the vesicular transport assays are listed in Table 6 where: “BCRP” refers to breast cancer resistance protein; “MDR1” refers to multidrug resistance protein 1; “E3S” refers to Estrone-3-sulfate; and “NMQ” refers to N-methyl quinidine.
(§5) Belvarafenib 2HCl was incubated with membrane vesicle preparations (total protein: 50 μg/well for MDR1, and 25 µg/well for BCRP) and the probe substrate. Incubations were carried out in the presence of 4 mM ATP or AMP to distinguish between transporter-mediated uptake and passive diffusion into the vesicles. Belvarafenib 2HCl was added to the reaction mixture in 0.75 μL of solvent ([…] of the final incubation volume). Reaction mixtures were pre-incubated for 15 minutes at 37±1° C. (or 32±1° C. for BCRP). Reactions were initiated by the addition of 25 μL of 12 mM MgATP (or 12 mM AMP in assay buffer as a background control), preincubated separately. Reactions were quenched by the addition of 200 μL of ice-cold washing buffer and immediate filtration via glass fiber filters mounted to a 96-well plate (filter plate). The filters were washed (5×200 μL of ice-cold washing buffer), dried and the amount of substrate inside the filtered vesicles was determined by liquid scintillation counting.
(§6) The controls were as follows. Incubation with AMP provided background activity values for all data points. Incubation with probe substrate (solvent only) provided 100% activity values. A reference inhibitor served as positive control for inhibition.
(§7) For all wells the amount of the translocated probe substrate was determined in cpm. Relative activities were calculated using the following equation: Relative Activity %=(A−B)/(C−D)*100. A is the amount of translocated substrate in the presence of TA and ATP. B is the amount of translocated substrate in the presence of TA and AMP. C is the amount of translocated substrate in the presence of solvent and ATP. D is the amount of translocated substrate in the presence of solvent and AMP.
(§8) Microsoft Excel 2010 (Microsoft Corporation, Redmond, WA) was used for basic data processing and GraphPad Prism 5.0 (GraphPad Software Inc., San Diego, CA) was used for curve fitting and determination of reaction parameters. In vesicular transport inhibition assays, the IC50 (μM) was calculated, where applicable. IC50 was defined as the concentration of TA required to inhibit maximal activity by 50%. IC50 values were derived from a four parametric logistic equation [log(inhibitor) vs. response−variable slope]; the curve was fitted to the relative activity vs. TA concentration plot using non-linear regression.

[8] = molecular target: T2, MDR1 (ABCB1/P-gp) (Homo sapiens, UniProt P08183); assay: Vesicular transport inhibition assay; type: in vitro ADME; details: MDR1-mediated NMQ accumulation
T2 construct: expressed by SOLVO Biotechnology in mammalian (K and M) cells by chemical selection; purchased SOLVO Biotechnology; host or cells: mammalian (K and M) cells, overexpression by chemical selection
Protocol: as §1, §2, §3, §4, §5, §6, §7, §8

[9] = molecular target: T1, BCRP (ABCG2); assay: Vesicular transport substrate assay; type: in vitro ADME
Protocol: as §1, §2, §3
(§9) Experimental method for vesicular transport substrate assay. The uptake of belvarafenib 2HCl into membrane vesicles was determined using inside-out membrane vesicles (total protein: 50 μg/well for MDR1, or 25 μg/well for BCRP) prepared from cells overexpressing BCRP or MDR1 ABC transporters as well as from control cells. Two incubation time points (2 and 20 min) and two concentrations (1 and 10 μM) of belvarafenib 2HCl were tested in the presence of ATP or AMP, to determine whether belvarafenib 2HCl is actively transported into the vesicles. Reaction mixtures as well as start reagents (MgATP and AMP solutions) were pre-incubated for 15 minutes at 32° C. for BCRP, and 37° C. for MDR1 assay. Reactions were initiated by addition of the start reagent (MgATP or AMP) to the appropriate wells. Reactions were quenched by the addition of 200 μL of ice-cold washing buffer and immediate filtration via glass fiber filters mounted to a 96-well plate (filter plate). The filters were washed 5×200 μL of ice-cold washing buffer and dried. The amount of accumulated belvarafenib 2HCl retained inside the vesicles was determined by LC-MS/MS detection after washing the vesicles 2 times with 100 μL MeOH:H2O (2:1).
(§10) In the vesicular transport substrate assays, the ATP-dependent transport of the TA as well as the ATP-dependent fold accumulation was calculated for each concentration and time point using the following equation, in both the transporter-containing and control vesicles:
(§11) ATP−dependent transport=nATP−NAMP Fold accumulation=nATP/nAMP
(§12) nATP is the amount of translocated TA in the presence of 4 mM ATP, in pmol/mg. nAMP is the amount of translocated TA in the presence of 4 mM AMP, in pmol/m. […]

[10] = molecular target: T2, MDR1 (ABCB1/P-gp); assay: Vesicular transport substrate assay; type: in vitro ADME
Protocol: as §1, §2, §3, §9, §10, §11, §12

[11] = Stage III of Study MEK4592g, 18 patients
[12] = cobimetinib single agent, Study MEK4592g

T2 sequence (P08183 whole entry): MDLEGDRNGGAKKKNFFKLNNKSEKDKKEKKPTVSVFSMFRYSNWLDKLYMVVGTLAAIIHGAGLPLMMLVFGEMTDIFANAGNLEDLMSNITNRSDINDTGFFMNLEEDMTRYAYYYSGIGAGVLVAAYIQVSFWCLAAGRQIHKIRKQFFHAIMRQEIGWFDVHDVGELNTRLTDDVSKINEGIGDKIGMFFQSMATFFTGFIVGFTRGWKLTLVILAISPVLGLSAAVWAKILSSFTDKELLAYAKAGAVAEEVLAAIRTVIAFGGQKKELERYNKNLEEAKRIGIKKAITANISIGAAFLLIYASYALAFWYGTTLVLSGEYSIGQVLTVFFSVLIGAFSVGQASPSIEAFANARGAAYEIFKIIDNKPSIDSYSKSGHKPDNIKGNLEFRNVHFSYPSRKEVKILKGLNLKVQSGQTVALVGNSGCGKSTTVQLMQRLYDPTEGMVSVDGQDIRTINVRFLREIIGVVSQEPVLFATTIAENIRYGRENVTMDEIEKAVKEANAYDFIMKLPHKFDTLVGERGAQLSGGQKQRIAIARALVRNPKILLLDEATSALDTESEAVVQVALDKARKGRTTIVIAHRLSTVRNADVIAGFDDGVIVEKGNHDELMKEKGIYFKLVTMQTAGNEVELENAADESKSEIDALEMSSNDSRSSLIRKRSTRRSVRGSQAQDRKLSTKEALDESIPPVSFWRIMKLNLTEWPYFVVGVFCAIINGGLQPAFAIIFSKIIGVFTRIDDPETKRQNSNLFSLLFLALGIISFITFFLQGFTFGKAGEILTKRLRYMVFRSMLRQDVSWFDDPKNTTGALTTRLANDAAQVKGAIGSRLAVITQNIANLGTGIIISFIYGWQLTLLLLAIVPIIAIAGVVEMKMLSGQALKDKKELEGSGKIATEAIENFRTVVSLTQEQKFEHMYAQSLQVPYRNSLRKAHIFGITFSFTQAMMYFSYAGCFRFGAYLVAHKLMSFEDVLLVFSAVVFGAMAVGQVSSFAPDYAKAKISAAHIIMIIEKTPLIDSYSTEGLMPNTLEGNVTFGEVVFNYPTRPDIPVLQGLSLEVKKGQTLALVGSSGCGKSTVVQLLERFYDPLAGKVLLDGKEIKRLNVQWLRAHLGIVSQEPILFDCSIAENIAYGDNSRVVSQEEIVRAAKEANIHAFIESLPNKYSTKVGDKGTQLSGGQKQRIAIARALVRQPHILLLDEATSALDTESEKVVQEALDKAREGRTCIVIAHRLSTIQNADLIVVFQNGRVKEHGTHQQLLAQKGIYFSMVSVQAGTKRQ

O=C(c1ccc(F)c(F)c1Nc1ccc(I)cc1F)N1CC(O)([C@@H]2CCCCN2)C1 [Cobimetinib]
B/P (nonclinical), percentage of brain exposure relative to plasma [1]: 30%
P-gp/BCRP efflux substrate? [2]: Yes (P-gp)
patients with SD as best overall response [3, 11]: 22.2%
patients with unconfirmed tumor responses [3, 11]: 11.1%
patients with confirmed partial response (PR) [3, 12]: 6.2%
patients with progressive disease [3, 12]: 41.2%
food effect on pharmacokinetics, fed state compared with fasted state [4]: not altered
binding to plasma proteins [5]: 95%
tumor regression [6]: up to 100%

Cc1ccc2c(Nc3cccc(Cl)c3F)nccc2c1NC(=O)c1csc2c(N)ncnc12 [belvarafenib 2HCl]
Maximum inhibition (% of control) ([7]; 0.02-13.3 μM): 99.8%
IC50 ([7]; estimated, top of the curve constrained at 100%): 0.011 µM
inhibition at 0.02 µM ([7]; human, probe estrone-3-sulfate (E3S), 0.02 μM, read-out: inhibition at the lowest investigated concentration): 70%
IC50 ([8]; estimated, bottom constrain (0%), inhibition did not reach 50%): 29.6 µM
inhibition at 13.3 µM ([8]; human, probe N-methyl quinidine (NMQ), highest applied concentration (13.3 μM), read-out: Maximum inhibition (% of control)): 32%
Maximum ATP dependent fold accumulation in transporter expressing vesicles ([9]; 1 and 10 μM, 2 and 20 min): 1.51
Substrate ([9]; BCRP VT): probably not a substrate; also recorded: Unlikely
Maximum ATP dependent fold accumulation in transporter expressing vesicles ([10]; 1 and 10 μM, 2 and 20 min): 1.23
Substrate ([10]; MDR1 VT): probably not a substrate; also recorded: Unlikely

CC(C)(C)c1nc(-c2cccc(NS(=O)(=O)c3c(F)cccc3F)c2F)c(-c2ccnc(N)n2)s1 [Dabrafenib]
B/P (nonclinical), percentage of brain exposure relative to plasma [1]: 2-4%
P-gp/BCRP efflux substrate? [2]: Yes (P-gp + BCRP)
P-gp/BCRP efflux substrate? ([2]; listed as dabrafenib): is a P-gp and a BCRP efflux substrate

COC(=O)N[C@@H](C)CNc1nccc(-c2cn(C(C)C)nc2-c2cc(Cl)cc(NS(C)(=O)=O)c2F)n1 [Encorafenib]
brain to plasma ratio ([1]; literature values): about 0.004
B/P (nonclinical), percentage of brain exposure relative to plasma [1]: 0.4%
P-gp/BCRP efflux substrate? [2]: Yes (P-gp + BCRP)
P-gp/BCRP efflux substrate? ([2]; listed as encorafenib): is a P-gp and a BCRP efflux substrate

Cn1cnc2c(F)c(Nc3ccc(Br)cc3Cl)c(C(=O)NOCCO)cc21 [Selumetinib]
B/P (nonclinical), percentage of brain exposure relative to plasma [1]: 2%
P-gp/BCRP efflux substrate? [2]: Yes (P-gp + BCRP)

CCCS(=O)(=O)Nc1ccc(F)c(C(=O)c2c[nH]c3ncc(-c4ccc(Cl)cc4)cc23)c1F [Vemurafenib]
B/P (nonclinical), percentage of brain exposure relative to plasma [1]: 0.4-1% ^
P-gp/BCRP efflux substrate? [2]: Yes (P-gp + BCRP)
P-gp/BCRP efflux substrate? ([2]; listed as vemurafenib): is a P-gp and a BCRP efflux substrate

CC(=O)Nc1cccc(-n2c(=O)n(C3CC3)c(=O)c3c(Nc4ccc(I)cc4F)n(C)c(=O)c(C)c32)c1 [Trametinib]
B/P (nonclinical), percentage of brain exposure relative to plasma [1]: 15%
P-gp/BCRP efflux substrate? [2]: Yes (P-gp + BCRP)

C[C@@H](NC(=O)c1ncnc(N)c1Cl)c1ncc(C(=O)Nc2cc(C(F)(F)F)c(Cl)cn2)s1 [DAY101]
B/P (nonclinical), percentage of brain exposure relative to plasma [1]: 20-34% ^
P-gp/BCRP efflux substrate? [2]: Yes (BCRP)
